Assay: Human HepG2 cell viability assay in 384 well format
Assay type: toxicity, cell-based
Design: dose 125 nL, time 70.5 hour; concentration not given beside the values
Details: HepG2 cells, read-out: Inhibition

| SMILES | cytotoxicity at 70.5 h [%] |
| --- | --- |
| COc1ccc(-c2csc3c2c(N)nc(=O)n3CCN(C)C)cc1 | -7.62 |
| Cc1cc(N2CCCC2)nc(N(C)CCO)c1C#N | -9.55 |
| COc1ccc(-c2csc3c2c(N)nc(=O)n3CCCN(C)C)cc1 | -8.54 |
| CC(C)n1c(=O)c2ccccc2n(CCN2CCCCC2)c1=O | -12.6 |
| CN1CCCN(CC(CC(=O)Nc2ccc(Cl)cc2)C(=O)O)CC1 (configuration not stated) | -6.04 |
| COCCNC(=O)Cn1cc(OCc2ccccc2)c(=O)cc1CO | -15.3 |
| Cc1ccc(C(=O)Nc2nnc(C(C)C)s2)c(-n2cnnn2)c1C | -5.81 |
| NC(=O)c1ccccc1NC(=O)CCN1CCN(c2ccccc2)CC1 | -9.88 |
| COc1ccc2nnc(CCC(=O)Nc3nc(C)c(C)s3)n2n1 | -9.75 |
| Cc1nn2cnnc2c(C)c1CCC(=O)Nc1nnc(C(C)C)s1 | 12.1 |
| Cn1cc(NC(=O)CNC(=O)N2CCN(c3ccc(F)cc3)CC2)cn1 | -2.76 |
| CC1=Nc2c(c(=O)[nH]n2C(C)C)C(c2ccc3ncccc3c2)S1 (configuration not stated) | 0.555 |
| CN(C)S(=O)(=O)c1ccc(-c2nc(C#N)c(NC3CC3)o2)o1 | -4.74 |
| O=C(CCc1ccc(-n2cnnn2)cc1)Nc1ccncc1 | -7.21 |
| Cn1cc(NC(=O)CNC(=O)N2CCN(c3ccc(Cl)cc3)CC2)cn1 | -5.62 |
| CC(C)OCC(=O)Nc1ccc(Oc2ccc3c(c2)OCO3)nc1 | -5.21 |
| COc1coc(C(=O)Nc2nc(-c3ccncc3)cs2)cc1=O | -11.9 |
| COc1ccc(NC(=O)c2nc(C)sc2C(C)C)cn1 | -9.52 |
| O=C(CCc1nc2cccnc2[nH]1)Nc1ccc2c(c1)NC(=O)CO2 | 8.55 |
| O=C(Nc1cccnc1-n1cc(Cl)cn1)C1CCCC1 | -29.5 |
| COc1ccc2nnc(CCCC(=O)NCc3ccccc3)n2n1 | -13.2 |
| O=C1CC(c2ccc(C(=O)O)cc2)c2cnn(Cc3ccco3)c2N1 (configuration not stated) | -25.8 |

| SMILES | cytotoxicity at 70.5 h [%] |
| --- | --- |
| Cc1nn2c(-c3cnn(C)c3)nnc2s1 | -7.18 |
| CC(C)(C)C1CC(=O)Nc2c1cnn2Cc1ccco1 (configuration not stated) | -17.9 |
| O=C1CCC(c2ccc(Cl)cc2)=NN1CN1CCCCCC1 | -4.16 |
| COc1coc(C(=O)Nc2nc(-c3cccnc3)cs2)cc1=O | -13.5 |
| C[C@H](NC(=O)N1CCN(c2ccc(Cl)cc2)CC1)C(=O)N1CCSCC1 | -14.7 |
| COc1ccc2nnc(CCC(=O)Nc3nc4c(s3)CCCCC4)n2n1 | -17.3 |
| Cc1cc(O)cc(=O)n1CCCC(=O)Nc1n[nH]c2ccccc12 | -11.5 |
| Cn1cc(-c2nnc3sc(C4CCC4)nn23)cn1 | -12.3 |
| Cc1ccc(S(=O)(=O)c2ncccc2CN2CCCC2)cc1 | -22.8 |
| Cn1ccc2c(C(=O)NC3CN4CCC3CC4)cccc21 (configuration not stated) | -32.2 |
| Cc1cc(C)nc(N2CCC(C(=O)Nc3n[nH]c(CC(C)C)n3)CC2)n1 | -12 |
| Cc1cc(C)nc(NCCC(=O)Nc2ccc(Cn3cncn3)cc2)n1 | -9.08 |
| CC(C)[C@H](NC(=O)N1CCN(c2ccc(Cl)cc2)CC1)C(=O)NC1CC1 | -17 |
| Cc1ccc(C(=O)N2C[C@@H]3CN(S(C)(=O)=O)CCO[C@@H]3C2)o1 | -0.0736 |
| CC(=O)N1CCC2(CC1)C(=O)N(C)c1c(F)cccc12 | 3.91 |
| CC(C)CNC(=O)c1cc2c(s1)CCN2Cc1cccnc1 | -1.22 |
| COCCCN1CCCCC12CC(=O)N(Cc1ccccn1)C2 (configuration not stated) | -1.98 |
| Cn1cc(CN2CCc3ncnc(N4CCCC4)c3CC2)cn1 | -0.713 |
| Cn1cccc1C(=O)N1C[C@@H]2CCCO[C@@H]2[C@H](N2CCOCC2)C1 | 0.647 |
| Cc1ccc(CC(=O)N2CC[C@@H]3NC(=O)CC[C@@H]32)cc1 | 4.9 |
| CN(C)CCN1CCOC2(CCN(c3nccs3)CC2)c2ccccc21 | 28.7 |
| CS(=O)(=O)N1CCOC2(CCN(c3nccs3)CC2)c2ccccc21 | 15.3 |

| SMILES | cytotoxicity at 70.5 h [%] |
| --- | --- |
| CC(C)CN1C(=O)CO[C@@H]2CN(C(=O)NC(C)C)C[C@H]21 | -2.72 |
| CN(Cc1ccncc1)C1CCC[C@@H]2CN(c3ncccn3)C[C@H]12 (some centres not stated) | -2.1 |
| Cc1noc(C)c1CN1C[C@@H]2CN(C(=O)c3cscn3)C[C@@H]2C1 | -2.29 |
| Cn1cc(CN2CCO[C@H]3C(Cn4cccn4)CC[C@@H]32)cn1 (some centres not stated) | 2.67 |
| Cn1cccc1C(=O)N1CC[C@@H]2[C@@H]1CC(=O)N2CC1CCOCC1 | 0.858 |
| COCCNC(=O)C1CN(Cc2ccsc2)Cc2ccnn2C1 (configuration not stated) | 1.38 |
| CS(=O)(=O)N1CC2(CCN(c3nccs3)CC2)c2ccccc21 | 5.59 |
| CS(=O)(=O)N1CCOC2(CCN(c3ncccn3)CC2)c2ccccc21 | -1.05 |
| CCn1nnc2c1C(COCCN(C)C)CN(c1nncs1)C2 (configuration not stated) | 31.1 |
| CN1CC(c2ccccc2)C2(CCN(C(=O)c3ccc[nH]3)CC2)C1=O (configuration not stated) | 2.63 |
| COCCN1C(=O)CC[C@]12CC[C@@H](NCc1ccc(OC)cc1)CC2 | 0.729 |
| O=S(=O)(c1cccnc1)N1C[C@@H]2COC[C@]2(COCC2CC2)C1 | -3.67 |
| CS(=O)(=O)N1CCO[C@@H]2CN(Cc3ccc(F)cc3)C[C@@H]2C1 | -6.95 |
| COCc1nn(CC2CC2)c2c1CN(C(=O)c1ccno1)CC2 | -3.21 |
| CCOCc1nn(C)c2c1CN(C(=O)c1ccno1)CC2 | -4.99 |
| Cn1cc(CN2CCC3(CCCN(C(=O)c4cnccn4)C3)C2)cn1 (configuration not stated) | -5.89 |
| CO[C@H]1CN(C(=O)c2ccc(C)o2)[C@@H]2CCCO[C@H]12 | -0.145 |
| CNC(=O)C1Cn2ccnc2C2(CCN(Cc3csc(C)n3)CC2)O1 (configuration not stated) | -2.63 |
| CCn1c(SCC(=O)N2CCCC2)nc2cc(C)[nH]c2c1=O | 36.5 |
| Cc1cc2nc(SCC(=O)N3CCCC3)n(C)c(=O)c2[nH]1 | -3.73 |
| CN(C)S(=O)(=O)c1ccc(-c2nc(C#N)c(NC(C)(C)C)o2)o1 | -8.34 |
| CN1C(=O)C2(CCN(C(=O)c3ccccc3)CC2)c2cccc(F)c21 | 0.835 |

| SMILES | cytotoxicity at 70.5 h [%] |
| --- | --- |
| Cc1cccc(CN2CCS(=O)(=O)[C@@H]3CCN(S(C)(=O)=O)CC[C@@H]32)n1 | 17.2 |
| CN(C)C(=O)N[C@H]1CN(C2CCOCC2)[C@@H]2CCCO[C@H]12 | 17.6 |
| Cc1noc(C)c1CN1CC2(CCCCN2C)CC1=O (configuration not stated) | 17.1 |
| CCc1ccc(CN2CCc3ncnc(N4CCOCC4)c3CC2)o1 | -1.4 |
| CN(C)CC(=O)N1CCc2ncnc(-c3cncnc3)c2CC1 | -3.5 |
| O=C1NC2(CCN(CC3CC3)CC2)CC1c1ccccc1 (configuration not stated) | -1.19 |
| O=C([C@H]1C[C@@H]2[C@@H](C1)OCCN2CC1CC1)N1CCCC1 | -1.83 |
| O=C(c1ccccc1)N1C[C@@H]2CCCO[C@@H]2[C@H](N2CCOCC2)C1 | 1.03 |
| O=C(c1ccoc1)N1CCCC2(CCC(=O)N2Cc2cccnc2)C1 (configuration not stated) | 2.4 |
| O=C(NC1CC1)N1CCc2ccc(=O)n(Cc3cccnc3)c2CC1 | 6.33 |
| Cc1ccc(CN2CCOC3(CCN(C(=O)C4CC=CC4)CC3)C2)cc1 | -2.99 |
| CCn1nnc2c1C(COCCN(C)C)CN(S(=O)(=O)CC)C2 (configuration not stated) | -1.87 |
| COc1cccc(CN2CCC3(CC2)CCN(c2ncc(C)cn2)C3)c1 | -0.283 |
| c1cnc(N2CCO[C@H]3[C@H](OCCN4CCCC4)CC[C@@H]32)nc1 | 0.11 |
| Cc1ccc(CN2CCOC3(CCN(C(=O)N4CCCC4)CC3)C2)cc1 | -2.45 |
| CCn1nnc2c1C(COCCN(C)C)CN(S(C)(=O)=O)C2 (configuration not stated) | 2.19 |
| O=C(NC1CC1)N1CCc2ccc(=O)n(CCN3CCCC3)c2CC1 | 0.272 |
| N#Cc1ccc(N2CCC3(CC2)CC(OCc2cccnc2)CO3)cc1 (configuration not stated) | -1.15 |
| CN(C)C(=O)COC1COC2(CCN(c3cnccn3)CC2)C1 (configuration not stated) | 1.25 |
| O=C1N(CC2CC2)CCC12CCN(CC1CC1)CC2 | -6.9 |
| CC(C)CN1CCC2(CCN(CC3CC3)CC2)C1=O | -8.5 |
| CC(C)CN1CCS(=O)(=O)[C@@H]2CCN(S(=O)(=O)CC(C)C)CC[C@@H]21 | -3.69 |

| SMILES | cytotoxicity at 70.5 h [%] |
| --- | --- |
| COCCN1CCC2(CCN(CC3CC3)CC2)C1=O | -2.3 |
| Cc1nc(CN2CCC3(CCCN(C(=O)c4cnccn4)C3)C2)cs1 (configuration not stated) | -2.34 |
| Cc1noc([C@@H]2C[C@@H]3CCN(CC4CC4)C[C@H]3O2)n1 | -4.17 |
| O=C(Cc1ccsc1)N1C[C@@H]2COC[C@]2(COCc2cccnc2)C1 | -0.0283 |
| Cc1ccccc1C(=O)N1C[C@@H]2COC[C@]2(COCc2cccnc2)C1 | 2.96 |
| CCOC(=O)[C@]12CCCN(Cc3nccs3)C[C@H]1CN(S(C)(=O)=O)C2 | -6.29 |
| CC(C)N(C)Cc1nnc2n1CCN(CC1CC1)CC2 | -0.138 |
| Cc1ccc2c(n1)N(C)CCN(Cc1ccco1)C2 | -1.42 |
| O=C(CO[C@@H]1CC[C@H]2[C@H]1OCCN2Cc1ccccn1)N1CCCC1 | 13.4 |
| Cn1cnc(S(=O)(=O)N2C[C@H]3CN(Cc4ccccn4)C[C@H]3C2)c1 | -1.38 |
| CCN1C[C@H]2[C@@H](C1)N(c1ncc(F)cn1)CC[C@H]2OC | 14.2 |
| COc1ccc2c(c1)C1(CCN(Cc3nccs3)CC1)N(C)CC2 | 5.77 |
| O=C1NCC[C@]12CN(Cc1ccncc1)C[C@H]2c1ccccc1 | -1.85 |
| O=C1NCC[C@]12CN(Cc1cccnc1)C[C@H]2c1ccccc1 | -3.58 |
| CCOC(=O)[C@]12CCCN(Cc3nccs3)C[C@H]1CN(CCOC)C2 | -1.13 |
| CCOC(=O)[C@]12CCCN(Cc3nccs3)C[C@H]1CN(C(C)C)C2 | -3.32 |
| Cc1ccc2c(n1)N(C)CCN(CCN1CCCC1)C2 | 4.19 |
| Cc1ccc(CN2CCC3(CC2)CC3CN(C)Cc2cccnc2)o1 (configuration not stated) | -5.02 |
| CN(C)CCN1CCO[C@H]2CN(Cc3ccccn3)C[C@H]21 | -6 |
